In US10071103B2, “Treatments for resistant acne” (VYOME BIOSCIENCES PVT. LTD., priority 2014, dated 2018):
Values after ≈ are worked out from the molar mass of the structure shown.

Key:
[1] = tested on: IL-6; assay: P. acnes-induced IL-6 release in THP-1 cells (ELISA); format: cell-based; conditions: THP-1 cells
Experimental: (§1) Method: Preparation of Stimulant for Inflammation: P. acnes culture suspension was prepared in PBS and the cell number in the suspension was adjusted to approximately 5×10^8 CFU/ml by measuring the cell density using a Densimat. The bacterial suspension was then heat killed at 80° C. for 30 min and stored at −80° C. until further use.
(§2) Cells were seeded in a 96-well format (2×10^5 THP-1 cells per well) in media containing 10% FBS. The cells were stimulated to induce inflammatory cytokines using 3 McFarland equivalent heat-killed P. acnes. Cells in control wells were treated with PBS. One hour after induction with P. acnes, test agents were added to the induced cells at appropriate concentrations to be tested (compound 91 at 25 μg/ml). The plates were incubated at 37° C. for 24 hours. After 24 h, the plates were centrifuged to pellet the cells and the supernatants were collected. The cell culture supernatants thus obtained were analyzed for levels of cytokines (IL-1α, IL-1β, IL-6 and IL-8) by ELISA using R&D Systems kits for individual cytokines following the manufacturer's instructions.
as §1, with “Preparation” for “Method: Preparation”, “stimulant” for “Stimulant”, “inflammation:” for “Inflammation:”
(§3) Cells were seeded in a 96-well format (2×10^5 THP-1 cells per well) in media containing 10% FBS. The cells were stimulated to induce inflammatory cytokines using 3 McFarland equivalent heat-killed P. acnes. Cells in control wells were treated with PBS. One hour after induction with P. acnes, test agents were added to the induced cells at appropriate concentrations (Besifloxacin at 10 and 30 μg/ml; Adapalene at 0.04 and 0.4 μg/ml). The plates were incubated at 37° C. for 24 hours. After 24 h, the plates were centrifuged to pellet the cells and the supernatants were collected. The cell culture supernatants thus obtained were analyzed for cytokine levels (IL-6 and IL-8) by ELISA using R&D Systems kits for individual cytokines following the manufacturer's instructions.

[2] = tested on: IL-8; assay: P. acnes-induced IL-8 release in THP-1 cells (ELISA); format: cell-based; conditions: THP-1 cells
Experimental: as §1, §2
as §1, with “Preparation” for “Method: Preparation”, “stimulant” for “Stimulant”, “inflammation:” for “Inflammation:”
as §3

[3] = tested on: P. acnes CCARM 9010; assay: In vitro time kill kinetics, P. acnes CCARM 9010; format: cell-based, Propionibacterium acnes; conditions: 2.5 μg/ml
Experimental: P. acnes (CCARM 9010) Aqueous Suspension (0.5 McFarland standard equivalent) was centrifuged at 2000 rpm for 20 min, pellet was resuspended in Brain Heart Infusion (BHI) broth. Resultant P. acnes suspension was kept for overnight (16 h) incubation in anaerobic box at 37° C. Stock solution of besifloxacin.HCl (1 mg/ml) was prepared in dimethyl sulphoxide (DMSO) which was further diluted with BHI broth to achieve working stock of besifloxacin.HCl (25 μg/ml). Then reaction mixture was prepared by adding 900 μl of P. acnes 0.5 McFarland standard culture (after 16 h incubation) to 100 μl of besifloxacin.HCl working stock solution (25 μg/ml), final besifloxacin.HCl concentration in reaction mixture was 2.5 μg/ml. Reaction mixture (1 ml) was incubated at 37° C. for 24 h in an anaerobic box in two sets—(1) tube with P. acnes with 2.5 μg/ml Besifloxacin.HCl and 2) broth control without besifloxacin.HCl. At predetermined time points (1 h, 6 h and 24 h), cells were collected and plated in duplicate after serial dilution in Brain Heart Infusion agar plate. Plates were allowed to grow for 3 days at 37° C. in anaerobic box. After incubation, plates were counted to determine colony forming units (CFU) and log reduction was calculated. In a similar experimental set-up, water was used as solvent instead of DMSO and effects of solvents on time kill kinetics were also studied.
2) Zone of Inhibition (ZOI): For ZOI test, BHA plates were spread with 100 μl of P. acnes suspension (0.5 McFarland standard equal). Test samples (drugs/formulations) were dissolved in water/solvent based on the solubility. Sterile disc (6 mm) were loaded with 10 μl of test samples (of various concentration of drug), and were placed above the plates containing P. acnes culture. Then, plates were incubated at 37° C. for 48 h, followed by their ZOI measurements. 3) Time Kill Kinetics (TK): For TK Test, P. acnes (CCARM 9010) aqueous suspension (0.5 McFarland standard equivalent) was centrifuged at 2000 rpm for 20 min, pellet was resuspended in brain heart infusion (BHI) broth. Resultant P. acnes suspension was kept for overnight (16 h) incubation in anaerobic box at 37° C. Stock solution of besifloxacin.HCl (1 mg/ml) was prepared in dimethyl sulphoxide (DMSO) which was further diluted with BHI broth to obtain working stock of besifloxacin.HCl (25 μg/ml). Then reaction mixture was prepared by adding 900 μl of P. acnes 0.5 McFarland standard equal culture (after 16 h of incubation) and 100 μl of besifloxacin.HCl working stock (25 μg/ml), to obtain final besifloxacin.HCl concentration in reaction mixture, 2.5 μg/ml. Reaction mixture (1 ml) was incubated at 37° C. in an anaerobic box—(1) tube with P. acnes and 2.5 μg/ml Besifloxacin.HCl and 2) broth control without besifloxacin.HCl for 24 h. At predetermined time points (0 h, 2 h, 8 h and 24 h), cells were collected and plated in duplicate after serial dilution in brain heart infusion agar plate. Plates were allowed to grow for 3 days at 37° C. in anaerobic box. After incubation, plates were counted to determine colony forming units (CFU) and log reduction was calculated.
0.5 McFarland standard equal P. acnes (CCARM 9010) culture was prepared in sterile water. Prepared culture was centrifuged at 2000 rpm for 20 min then supernatant was removed and similar amount of brain heart infusion (BHI) broth was added. P. acnes culture in BHI broth was kept for overnight (16 h.) incubation in anaerobic box at 37° C. Besifloxacin powder was diluted in water and DMSO to prepare 1 mg/ml stock and then both were further diluted in BHI broth to make final concentration of 100 μg/ml. 900 μl of P. acnes 0.5 McFarland culture (after 16 h. incubation) and 100 μl of diluted Besifloxacin (100 μg/ml) were mixed to obtain final Besifloxacin concentration 10 μg/ml in reaction mixture. Total reaction mixture (1 ml) was incubated at 37° C. in an anaerobic box.

[4] = tested on: P. acnes MTCC 1951; assay: MIC by micro broth dilution (Alamar blue), clindamycin-susceptible P. acnes; format: cell-based, Propionibacterium acnes; conditions: for Activity / bacterial killing, dose response curve (in words): clindamycin-susceptible MTCC 1951
Experimental: (§4) The plates were incubated at 37° C. for 48 h under anaerobic condition for P. acnes and 37° C. for 24 h for S. aureus The plates were read under Bio-Rad plate reader at 595 nm for optical density to generate the dose-response curves. The MIC of the test compound was recorded by addition of Alamar blue dye.
(§5) P. acnes (MTCC 3297, MTCC 1951& CCARM 9010) are cultured in Brain Heart Infusion (BHI) Broth at 37° C. for 48-72 h under anaerobic condition. The test compounds/formulations are initially diluted with suitable solvent and further diluted with BHI broth to get the required concentrations. Samples (100 μl) of different concentrations (prepared by serial dilution) are added to 96-well plate. To the wells, 100 μl of P. acnes BHI broth culture is added [culture turbidity adjusted against 0.5 McFarland standard (approx 1.5×10^8), and further diluted 100-fold with sterile BHI broth]. In addition Growth Control and Sterility Control are created using 100 μl each of P. acnes BHI broth culture and plain BHI broth, respectively.
(§6) Plates are incubated at 37° C. for 48-72 hrs under anaerobic condition. The plate is read under Bio-Rad plate reader @ 595 nm for optical density to generate the dose-response curves. The MIC of the test compound is recorded by addition of Alamar blue dye.
BHI broth and BHI agar media were prepared as per the manufacturer's instruction and autoclaved at 121° C. for 15 minutes. […] For MIC determination testing, gels are dissolved in the solvent and further diluted with BHI broth. Then, 96 wells plate are filled with 100 μl of BHI broth containing drug with different concentration to get the final concentrations of 0.06, 0.13, 0.25, 0.5, 1 and 2 μg/ml in different lanes (lane 1 to lane 6). Remaining lanes of the 96 well plate are used as growth control and sterility control. Finally, P. acnes culture suspension (approx 1.5×10^6) is added in all the wells except sterility control wells and plate is incubated at 37° C. for 48-72 h under anaerobic condition. At the end of 72 h, Alamar blue solution (20 μl) is added into the wells and incubated at 37° C. for 2 h. Plate is visualized for bacterial inhibitions and MIC values of the tested samples are determined. […]

[5] = tested on: P. acnes CCARM 9010; assay: MIC by micro broth dilution (Alamar blue), clindamycin-resistant/nonresponsive P. acnes; format: cell-based, Propionibacterium acnes; conditions: for Activity / bacterial killing, dose response curve (in words): clindamycin-nonresponsive CCARM 9010
Experimental: as §4, §5, §6

[6] = tested on: S. aureus MTCC 6908; assay: MIC by micro broth dilution, laboratory S. aureus strain; format: cell-based, Staphylococcus aureus; conditions: Staphylococcus aureus, MTCC6908; Table 6; read-out: MIC Susceptible S. aureus (6908) strain
Experimental: as §4
S. aureus MTCC 6908 were grown in Tryptone Soya Agar (TSA) at 37° C. for 24 hours. […] Plates were incubated at 37° C. for 24 hours. […] (2) Zone of Inhibition (ZOI): S. aureus MTCC 6908 were grown in Tryptone Soya Agar (TSA) at 37° C. for 24 hours. BHA plates are spreaded with 100 μl of 0.5 McFarland standard equal bacterial suspension. Test samples (drugs/formulations) were dissolved in water/solvent based on the solubility. Sterile disc (6 mm) were loaded with 10 μl of test samples (of various concentration of drug), and were placed above the spreaded plates. Plates were incubated at 37 C for 24 h, followed by ZOI measurement. (3) Time Kill Assay: 0.5 McFarland standard equal S. aureus culture was prepared in sterile water. Besifloxacin gels were diluted in Tryptone Soya broth (TSB) to get final concentration of 25 μg/ml. Then 900 μl of S. aureus 0.5 McFarland standard equal culture and 100 μl of diluted Besifloxacin gel was mixed to obtain final Besifloxacin concentration, 2.5 μl g/ml. Total reaction mixture (1 ml) was incubated at 37° C. in a tube rotator. After 2 and 6 h exposure, bacterial suspension was placed on Tryptone soya agar plate and incubated at 37° C. for 24 h.
Inoculated plates were incubated at 37° C. for 24 hours.

[7] = target: T1, E. coli DNA gyrase (Escherichia coli, UniProt P0AES4+P0AES6); assay: DNA gyrase super-coiling activity assay (Topogen kit, relaxed pHOT1 plasmid); format: biochemical; conditions: 1 μM and 2.5 μM
T1 construct: purchased Topogen Inc
Experimental: DNA super-coiling activity was assayed using DNA gyrase assay kit (Topogen Inc.) with relaxed pHOT1 E. coli plasmid DNA according to manufacturer's protocol. The standard reaction mixture (20 μl) contained 35 mM Tris-HCl (pH 7.5), 24 mM KCl, 4 mM MgCl2, 2 mM dithiothreitol, 1.8 mM spermidine, 1 mM ATP, 6.5% glycerol, 0.1 mg/ml bovine serum albumin (BSA), 10 μg/ml relaxed pHOT1 plasmid DNA and 1 U of DNA gyrase. The reaction mixture was incubated at 37° C. for 1 h in presence of selected compounds/fluoroquinolone at different concentrations. The reaction was terminated by addition of ⅕ volume of loading dye (4 μl) followed by proteinase K (50 μg/ml) and again incubated at 37° C. for half an hour. 20 μl chloroform/isoamyl alcohol (24:1) was added to each tube and vortexed briefly. Thereafter, the blue aqueous phase was separated out and analyzed by 1% agarose gel electrophoresis. The gel was stained by ethidium bromide for half an hour and destained with water for 15 mins. The gel was then visualized in a trans-illuminator and photographed.

[8] = Cells + P. acnes + 10 μg/ml, 24 h, Table 70
[9] = Cells + P. acnes + 30 μg/ml, 24 h, Table 70
[10] = Cells + P. acnes + Besifloxacin•HCl 10 μg/ml, Table 71

T1 sequence (P0AES4 whole entry, one chain of several): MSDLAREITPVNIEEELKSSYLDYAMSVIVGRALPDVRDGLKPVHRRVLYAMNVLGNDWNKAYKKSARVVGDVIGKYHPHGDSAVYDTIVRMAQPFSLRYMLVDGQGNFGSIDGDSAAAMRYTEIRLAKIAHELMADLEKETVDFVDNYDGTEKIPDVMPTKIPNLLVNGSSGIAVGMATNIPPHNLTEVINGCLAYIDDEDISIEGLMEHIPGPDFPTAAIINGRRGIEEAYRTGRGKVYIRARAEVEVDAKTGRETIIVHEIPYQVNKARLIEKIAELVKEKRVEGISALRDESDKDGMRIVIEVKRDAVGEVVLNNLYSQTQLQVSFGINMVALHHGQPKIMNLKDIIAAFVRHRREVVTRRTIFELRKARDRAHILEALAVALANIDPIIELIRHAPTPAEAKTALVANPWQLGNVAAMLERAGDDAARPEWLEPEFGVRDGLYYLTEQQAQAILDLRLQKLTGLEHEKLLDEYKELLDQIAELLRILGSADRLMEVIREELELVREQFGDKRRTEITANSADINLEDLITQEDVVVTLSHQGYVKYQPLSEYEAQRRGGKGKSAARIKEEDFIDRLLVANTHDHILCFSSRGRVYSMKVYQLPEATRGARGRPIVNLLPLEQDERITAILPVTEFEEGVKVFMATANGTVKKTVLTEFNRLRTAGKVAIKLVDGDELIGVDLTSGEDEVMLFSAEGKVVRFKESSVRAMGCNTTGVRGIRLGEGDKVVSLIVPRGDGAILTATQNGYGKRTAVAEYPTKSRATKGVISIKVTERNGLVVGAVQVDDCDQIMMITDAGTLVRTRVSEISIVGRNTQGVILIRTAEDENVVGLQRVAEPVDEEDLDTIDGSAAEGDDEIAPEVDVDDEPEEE

For Cl.N[C@@H]1CCCCN(c2c(F)cc3c(=O)c(C(=O)O)cn(C4CC4)c3c2Cl)C1 [Besifloxacin•HCl], the “Expression of Cytokines IL-6 (pg/ml) Mean” value [1, 8] was 282.45 pg/mL, the “Expression of Cytokines IL-6 (pg/ml) Mean” value [1, 9] was 124.58 pg/mL and the “Expression of Cytokines IL-6 (pg/ml) Mean” value [1, 10] was 282.45 pg/mL. The “Expression of Cytokines IL-8 (pg/ml) Mean” value [2, 8] was 2484.8 pg/mL, the “Expression of Cytokines IL-8 (pg/ml) Mean” value [2, 9] was 2301.6 pg/mL and the “Expression of Cytokines IL-8 (pg/ml) Mean” value [2, 10] was 2484.76 pg/mL. For the same molecule, the “Log 10 value of P. acnes” value ([3]; stock in DMSO, 0 h) was 7.0 ± 0.02, the “Log 10 value of P. acnes” value ([3]; stock in DMSO, 1 h) was 6.7 ± 0.03 and the “Log 10 value of P. acnes” value ([3]; stock in DMSO, 6 h) was 6.0 ± 0.05. For the same molecule, the “Log 10 value of P. acnes” value ([3]; stock in DMSO, 24 h) was 5.2 ± 0.02, the “Log 10 value of P. acnes” value ([3]; stock in water, 0 h) was 7.0 ± 0.02 and the “Log 10 value of P. acnes” value ([3]; stock in water, 1 h) was 6.7 ± 0.03. For the same molecule, the “Log 10 value of P. acnes” value ([3]; stock in water, 6 h) was 6.0 ± 0.02 and the “Log 10 value of P. acnes” value ([3]; stock in water, 24 h) was 5.2 ± 0.02.

For Cc1ncc([N+](=O)[O-])n1CC(CCl)OC(=O)CN1CCN(c2cc3c(cc2F)c(=O)c(C(=O)O)c2n3C(C)S2)CC1 (stereo not shown) [Compound 90, 7-{4-[1-Chloromethyl-2-(2-methyl-5-nitro-imidazol-1-yl)-ethoxycarbonylmethyl]-piperazin-1-yl}-6-fluoro-1-methyl-4-oxo-4H-2-thia-8b-aza-cyclobuta[a]naphthalene-3-carboxylic acid], the MIC ([4]; Cutibacterium acnes, MTCC1951, read-out: MIC Susceptible P. acnes (1951) strain) was 1.7 µg/mL (≈ 2.79 µM), the “Activity / bacterial killing, dose response curve (in words)” value (“Activity / bacterial killing” for short) [4] was “ineffective” and the “Activity / bacterial killing” value ([4]; listed as compound 90) was “not active”. The MIC ([5]; Cutibacterium acnes, CCARM9010, read-out: MIC Resistant P. acnes (9010) strain) was 0.9 µg/mL (≈ 1.48 µM), the “Activity / bacterial killing” value [5] was “shows activity” and the “Activity / bacterial killing” value ([5]; listed as compound 90) was “promising activity”. The MIC [6] was 1 µg/mL (≈ 1.64 µM) and the “Inhibition of super-coiling activity of DNA gyrase (in words)” value [7] was “able to inhibit the super-coiling activity”.
